Series [1] can be described thus: Stability of PAT solution stored at room temperature, read out as inhibition of recombinant WT CAC transport. The class given is physicochemical. To be noted: 25 and 50 µM PAT, stored at r.t., 24 and 72 h. From the text:
Figure 3A reports the interaction of PAT with the reconstituted WT protein. The inhibition observed after the pretreatment of proteoliposomes with the mycotoxin was not reversed by DTE, confirming the formation of an irreversible covalent bond between CAC and PAT also with the purified recombinant protein (see above Figure 1B). For evaluating the stability of the drug following prolonged storage, we measured the inhibition of the transport activity of WT adding to the samples, at various time, the same PAT solution stored at room temperature (r.t.).
Figure 3 (A) Reversal of PAT inhibition on recombinant protein by DTE. The carnitine homo-exchange transport activity was measured, as described in Materials and Methods, adding 0.1 mM [^3H] carnitine to proteoliposomes reconstituted with the recombinant WT CAC containing 15 mM internal carnitine in the absence or presence of 50 μM PAT, added 30 min before the labelled substrate. 5 mM dithioerythritol (DTE) was added 1 min before the transport assay in a control and PAT treated aliquot, respectively. […] Proteoliposomes reconstituted with the WT CAC were incubated by the same PAT solution (25 and 50 µM) after 0.5 h, 24 h and 72 h (white, grey and black bars, respectively) and then the transport activity was measured by adding 0.1 mM [^3H]-carnitine and stopped after 30 min as described in Materials and Methods.

The target in another series is T1, rat CAC mutant C136S (Rattus norvegicus, UniProt P97521, C136S).
T1 construct: made in house; host or cells: E. coli C0214 (pMW7, inclusion bodies)
T1 sequence (P97521 1-301 C136S): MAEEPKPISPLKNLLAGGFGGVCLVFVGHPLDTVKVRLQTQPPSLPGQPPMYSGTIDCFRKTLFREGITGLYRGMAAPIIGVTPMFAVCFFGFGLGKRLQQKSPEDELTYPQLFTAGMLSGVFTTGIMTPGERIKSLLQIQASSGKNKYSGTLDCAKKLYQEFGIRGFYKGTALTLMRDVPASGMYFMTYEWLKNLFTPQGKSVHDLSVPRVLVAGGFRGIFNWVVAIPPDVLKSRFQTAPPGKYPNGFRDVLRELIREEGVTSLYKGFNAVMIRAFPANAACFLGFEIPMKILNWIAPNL
Briefly: Carnitine antiport in proteoliposomes, CAC mutant C136S. The class given is biochemical. On the procedure: To shed light on the interaction between PAT and CAC and verify if specific Cys residues were involved, transport experiments on the recombinant rat and human WT CAC and CAC’s rat Cys mutants were performed. As in the case of the native protein, transport activities were measured as [^3H]-carnitine/carnitine antiport in proteoliposomes. […] The PAT inhibition of the WT recombinant protein was only slightly greater compared to the native protein, although compounds and other molecular systems that affect the mycotoxin binding to the native CAC were absent (see above). For identifying the residues involved in the PAT interaction, site-directed Cys mutants were tested for inhibition (Figure 2). […]
Figure 2 Dose-response analysis of the PAT inhibition of the CAC recombinant proteins. […] The data are expressed as a percentage of the controls (no PAT addition) and are means ± SD of three independent experiments. […]
For the transport assay, 550 μL of proteoliposomes were passed through a Sephadex G-75 column in order to remove the external substrate. […] After finishing the transport reaction, the external radiolabel substrate was removed by gel filtration chromatography (Sephadex G-75), and the intraliposomal radioactivity was measured by liquid scintillation. Transport was measured at 25 °C. […] Transport rates were measured in 10 min, i.e., within the initial linear range of the time course.

On to `O=C1C=C2C(=CCOC2O)O1` (centres unmarked) [PAT, 4-hydroxy-4H-furo [3,2c] pyran-2 [6H] -one], for which the “reactivity towards CAC of stored PAT solution” value in series [1] is reported as “does not change”. Besides, the IC50 result against rat CAC mutant C136S is “not possible to detect”.

(Values after PMC9917099, “The Mycotoxin Patulin Inhibits the Mitochondrial Carnitine/Acylcarnitine Carrier (SLC25A20) by Interaction with Cys136 Implications for Human Health” (International Journal of Molecular Sciences, 2023).)
